Measured values taken from US20040234523A1, “Use of IL-18 inhibitors for the treatment and/or prevention of heart disease” (priority 2001, published 2004).

Assays:
Assay type in all cases: cell-based
human atrial trabeculae [1] = experiment: Ischemia/reperfusion of suprafused human atrial trabeculae: postischemic developed force; details: N=7, I/R alone 35%
Method: (§1) Isolated Atrial Trabeculae Patients undergoing elective coronary artery bypass surgery with a pump oxygenator require insertion of a canula into the right atrium. At that time, a small segment of the right atrial appendage is routinely excised and discarded. Trabeculae were obtained from this discarded tissue. Human atrial tissue was placed in oxygenated modified Tyrode's buffer solution at 4° C. Modified Tyrode's solution was prepared daily with deionized distilled water and contained D-glucose at 5.0 mmol/liter, CaCl2 at 2.0 mmol/liter, NaCl at 118.0 mmol/liter, KCl at 4.0 mmol/liter, MgSO4.7H2O at 1.2 mmol/liter, NaHCO3 at 25.0 mmol/liter, and NaH2PO4 at 1.2 mmol/liter. […]
Experimental Design Trabeculae were equilibrated for 90 min to increase the baseline stretch force to 1,000 mg and to allow stabilization of developed force. […] Contractions were monitored by force transducers (Grass FT03) and recorded with a computerized preamplifier and digitizer (MacLab Quad Bridge, MacLab/8e, AD Instruments, Milford, Mass.) and continuously monitored with a Macintosh computer. […]
Statisical Analysis Data are expressed as the mean±SEM. Mean changes in developed force were calculated relative to the control value at 90 min for each patient's tissue. Statistical significance of differences between groups were determined by factorial ANOVA with Bonferroni-Dunn post hoc analysis. […]

[2] = tested on: human peripheral blood mononuclear cells; experiment: Endotoxin-induced secretion of mature IL-1β by peripheral blood mononuclear cells (ELISA)
Method: Reagents IL-18BPa isoform was expressed with a N-terminal (His)6 tag in Chinese hamster ovary cells and purified to homogeneity. The ability of IL-18BPa-(His)6 to neutralize IL-18 has been described (Kim et al., 2000). The ICE inhibitor (ICEi) Ac-Try-Val-Ala-Asp-chloromethylketone (YVAD) was purchased from Alexis Biochemicals (San Diego) and solubililized in DMSO at 10 mg/ml. The ICEi was diluted in Tyrode's solution before being used. On human peripheral blood mononuclear cells, the ICEi reduces endotoxin-induced secretion of mature IL-1β by 92%, as measured by ELISA (Cistron Biotechnology, Pine Brook, NJ).

human atrial trabeculae [3] = experiment: Developed force of human atrial trabeculae exposed to exogenous IL-18 under normoxic conditions
Method: Mature IL-18 (100 ng/ml) were added to atrial trabeculae throughout the 90 min experimental period. The vertical axis indicates the mean percent change from baseline developed force. The baseline was determined at the end of the equilibration period (not shown). (n=6). *P<0.05, **P<0.001 as compared to control at the same interval and for the remainder of the experimental period.
Isolated Atrial Trabeculae Patients undergoing elective coronary artery bypass surgery with a pump oxygenator require insertion of a canula into the right atrium. At that time, a small segment of the right atrial appendage is routinely excised and discarded. Trabeculae were obtained from this discarded tissue. Human atrial tissue was placed in oxygenated modified Tyrode's buffer solution at 4° C. […]
(§2) Experimental Design Trabeculae were equilibrated for 90 min to increase the baseline stretch force to 1,000 mg and to allow stabilization of developed force. […] Contractions were monitored by force transducers (Grass FT03) and recorded with a computerized preamplifier and digitizer (MacLab Quad Bridge, MacLab/8e, AD Instruments, Milford, Mass.) and continuously monitored with a Macintosh computer.
Next, the direct effect of exogenous IL-18 on myocardial contractile function was determined. […]

human atrial trabeculae [4] = experiment: Developed force of human atrial trabeculae exposed to exogenous TNFα, with or without IL-18BP; details: TNFα 1 ng/ml alone; after 90 minutes; n=5
Method: TNFα and IL-18BP were added to each bath change.
as §1, with “mmol/liter. The substrate-free Tyrode's solution contained choline chloride at 7 mmol/liter to maintain osmolarity. Unless otherwise indicated, chemicals and reagents were obtained from Sigma.” for “mmol/liter.”
as §2

human atrial trabeculae [5] = experiment: Tissue creatine kinase (CK) activity in trabeculae exposed to TNFα, with or without IL-18BP; details: 90 minutes of TNFα exposure alone; n=6; control 6801±276
Method: CK activity is expressed in units of CK activity per milligram of wet tissue weight. (n=6).
Preserved Trabecular CK Activity End reperfusion tissue (90 min) CK activity was determined as described (Kaplan et al., 1993). Tissues were homogenized in 100 vol of ice-cold isotonic extraction buffer (Cleveland et al., 1997, Kaplan et al., 1993). The assay was performed with a CK kit (Sigma) by using an automated spectrophotometer. Results are presented as units of CK activity per mg (wet weight of tissue).
Casases are often associated with apoptosis. To assess cellular viability in trabeculae exposed to TNFα, tissue intracellular creatine kinase (CK) was measured. In this assay, high CK levels indicate viable cells. As depicted in FIG. 8, control trabeculae which underwent 90 minutes of normoxic superfusion, contained 6801±276 units of CK activity per milligram of wet tissue weight. […] Trabeculae exposed to TNFα in the presence of IL-18BP contained 5605±212 units/mg of tissue. […] This was an unexpected finding since the magnitude of developed force at the end of the experimental period was similar for I/R and TNFα.

Substance: Ac-Try-Val-Ala-Asp-chloromethylketone [ICEi]
- postischemic contractile function, percent of control (human atrial trabeculae [1]; ICEi 10 μg/ml): 60%
- postischemic contractile function, percent of control (human atrial trabeculae [1]; ICEi 20 μg/ml): 75.8%
- reduction of endotoxin-induced secretion of mature IL-1β [2]: 92%

Substance: IL-18: exogenous mature IL-18 added to atrial trabeculae
- decrease in developed force (human atrial trabeculae [3]; IL-18 100 ng/ml, 90 minutes continuous exposure, normoxic, n=6): 42%
- potency as myocardial depressant compared with TNFα (human atrial trabeculae [3]; human atrial trabeculae): not as potent a myocardial depressant as is TNFα

Substance: TNFα
- decrease in developed force compared to control (human atrial trabeculae [4]): 58%
- preserved tissue CK activity (human atrial trabeculae [5]): 3246±217 units/mg
